# Laboratory results from patent US20250027958A1, “DIAGNOSTIC AND THERAPEUTIC METHODS USING HEME AS A BIOMARKER FOR CELLULAR AND TISSUE DAMAGE” (Beth Israel Deaconess Medical Center, Inc., priority 2021, published 2025).
# Entries after “also recorded” stand apart in the source; their conditions may differ.
# Tested on: male C57BL/6 mice
# Details: DOX 20 mg/kg i.p., blood collected 1 hr later
# Method: In brief, for the assessment of acute cytotoxicity, male C57BL/6 mice (10-12 weeks old) are administered HBI-002 (10 ml/kg, per os) or a control vehicle (10ml/kg, per os) at 0 hr and 1 hr, followed by administration of doxorubicin at 1.25 hr (20 mg/kg, intraperitoneal injection) and blood and tissue collection at 2.25 hr.
# Male C57BL/6 mice (10-12 weeks old) were administered HBI-002 (10 ml/kg, per os) or a control vehicle (10 ml/kg, per os) at 0 hr and 1 hr, followed by administration of DOX at 1.25 hr (20 mg/kg, intraperitoneal injection) and blood and tissue collection at 2.25 hr (FIG. 1).
smiles,measurement,value
"COc1cccc2c1C(=O)c1c(O)c3c(c(O)c1C2=O)C[C@@](O)(C(=O)CO)C[C@@H]3O[C@H]1C[C@H](N)[C@H](O)[C@H](C)O1 [DOX, Doxorubicin]",serum heme upon administration of DOX,significant increases in heme levels; also recorded: significant increase in serum heme
